From patent US20260284079A1, “LIPID PRODRUGS OF ALLOPR[…] USES THEREOF” (Seaport Therapeutics, Inc., priority 2023, published 2026)

Tests used:
[1] = Sleep Quality Scale (SQS); type: in vivo, human; details: all cohorts
Description: The scale was administered in the morning, and subjects are asked to rate their sleep quality of the past 7 days, ranging from terrible (score of 0), poor (scores of 1-3), fair (scores of 4-6), good (scores of 7-9), and excellent (score of 10).

[2] = Video-oculography (VOG), saccades; type: in vivo, human; details: day 1, all doses tested (250, 375, 500 mg)
Text: Video-oculography (VOG) is a non-invasive, visual method of measuring horizontal, vertical, and torsional components involved in eye tracking, making use of a head-mounted mask equipped with cameras. VOG was used to measure 3 assessment metrics: horizontal saccades (movement of eyes towards a point of fixation), horizontal anti-saccades (movement of eyes away from a point of fixation), and horizontal and vertical pursuits (fixation of eyes on a moving object).
Binocular (both eyes) movements viewing were measured during the saccades test. During this 1-min trial, the visual target (small square) will jump from 0° to 10° to the right or to the left in a pseudorandom sequence. Duration of the target on screen vary pseudo-randomly from 1,500 to 2,000 ms to minimize anticipation of the subject. Then the visual target will be extinguished during 200 ms before the next move starting from the center. The participant is instructed to track the target on screen from center to side and from side to center without anticipation. The antisaccades test is identical to the saccades test in its procedure (with 10° jumps of the target) except that there is no extinction of the target. […]
Binocular movements viewing were measured during the pursuit tests. […]

[3] = Quantitative electroencephalogram (qEEG); type: in vivo, human
Text: Quantitative Electroencephalogram (qEEG or EEG) has gained prominence as a useful biomarker in human drug studies as it is continuous, objective, repeatable, sensitive, reproducible, non-invasive and highly translatable from nonclinical data. EEG serves as biomarker in this protocol and provides PD outcomes for PK-PD modeling, thus enabling a more thorough understanding of the pharmacological effects of Compound 1. In addition, EEG can provide useful safety information regarding detection of epileptiform activity and any pro-convulsive effects of the study drug. Data outputs included spectral analysis and flat brain mapping, among others.
EEG was collected at multiple time points before and after dosing on Day 1 and Day 7 of the MAD portion of the study except for Cohort 8. For a given recording, the subject was fitted with a cap containing the electrodes. For each session, recordings were collected for approximately 15 minutes while subjects are sitting quietly, and include portions with eyes open and eyes closed.
The qEEG is a quantitative measurement of brain oscillations considering different frequency levels. Resting-state brain activity was recorded in 2 conditions (eyes closed and eyes open). For each electrode, a spectral analysis of the EEG signal was carried out to derive absolute and relative powers in standard frequency bands. […]

[4] = Food effect study, PK (Example 1 Part 2)
[5] = Stanford Sleepiness Scale (SSS) and MOAA/S; type: in vivo, human
Text: Part 1 Exploratory Objectives: To characterize the pharmacodynamic (PD) effects, and the PK/PD relationship, of Compound 1 on select clinical outcome assessments (COAs) of central nervous system effects following ascending single oral doses of Compound 1 (e.g., Stanford Sleepiness Scale (SSS), Modified Observer's Assessment of Alertness/Sedation Scale (MOAA/S), Sleep Quality Scale (SQS)). Part 1 Exploratory Endpoints: Changes from Baseline in SSS, MOAA/S, and/or SQS.
Part 3 Exploratory Objective: to characterize the PD effects, and the PK/PD relationships of Compound 1 on select effects following multiple oral doses of Compound 1. Part 3 Exploratory Endpoints: changes from baseline in qEEG, SSS, MOAA/S, the SQS, Cogstate, Body Sway, and video-oculography (VOG) assessment.
Participants were assessed using metrics as outlined below. The SSS is a one item self-report questionnaire that measures and quantifies progressive steps in the level of sleepiness throughout the day. Subjects select one of seven statements that best represents their level of perceived sleepiness at a given timepoint, as depicted in Table 7.
The MOAA/S is a clinical outcome assessment that measures a subject's level of alertness/sedation as determined by a rater; in its modified form, it uses only the responsiveness component of the original Observer's Assessment of Alertness/Sedation Scale. Responsiveness, as a measure of sedation, was assessed and scored on a scale of 0 to 5 as outlined in Table 8.

CCCCCCCC(=O)OCC(COC(=O)CCCCCCC)OC(=O)CC(C)CC(=O)OCOC(=O)O[C@@H]1CC[C@@]2(C)[C@@H](CC[C@@H]3[C@@H]2CC[C@]2(C)[C@@H](C(C)=O)CC[C@@H]32)C1 (stereo partly drawn) [Compound 1]
sleep quality as measured by SQS [1]: no meaningful improvements or worsening | time of maximum drop of saccade peak velocity [2]: 4 hour post-dose | qEEG power for the β-band (β1, β2, β3) ([3]; cohorts 4 (250 mg), 5 (375 mg), 6 (500 mg)): dose-dependent increase in power | time of maximum qEEG effects following administration ([3]; day 1 and day 7): approximately 4 hours | maximal concentrations and exposure values, combined allopregnanolone compared to allopregnanolone ([4]; 140 mg food effect study): approximately 15 times higher | increase of AUC0-t, AUC0-inf and Cmax in fed (LF) group compared to fasted and fed (HF) groups ([4]; allopregnanolone and combined allopregnanolone, 140 mg): 1.3 to 1.5 fold | change from baseline in SSS and MOAA/S ([5]; Cohort 6 (Part 3), 500 mg, compared to lower doses): greater magnitude of effect from baseline | change from baseline in SSS and MOAA/S score ([5]; Cohorts 1, 2, 2b (Part 1), single doses): dose-dependent increase from baseline in the Stanford Sleepiness Scale (SSS) and a decrease from baseline in the MOAA/S score | change from baseline in SSS and MOAA/S ([5]; Cohorts 4, 5, 7, 8 (Part 3), 250 mg and 375 mg, early days of dosing): low magnitude of change from baseline | time of maximum changes in SSS and MOAA/S ([5]; Part 1): 3-5 hours post-dose | time of return to baseline levels of SSS and MOAA/S ([5]; Part 1, all treatment groups): ≤ 12 hours post-dose | difference in mean change from baseline between fed (HF or LF) and fasted states ([5]; cohort 3, 140 mg): no apparent difference
